From ChEMBL document CHEMBL1148436, “Structural determinants for high 5-HT(2A) receptor affinity of spiro[9,10-dihydroanthracene]-9,3(')-pyrrolidine (SpAMDA)” (Bioorg Med Chem Lett, 2004)
pKi: −log10 of the molar value.

Tests used:
[1] = molecular target: 5-hydroxytryptamine receptor 2A (Homo sapiens, UniProt P28223); test: Binding affinity towards 5-hydroxytryptamine 2A receptor using [3H]ketanserin
[2] = molecular target: T1, 5-hydroxytryptamine receptor 2C (Homo sapiens, UniProt P28335); test: Binding affinity towards 5-hydroxytryptamine 2C receptor using [3H]mesulergine as radioligand
T1 sequence (P28335 whole entry): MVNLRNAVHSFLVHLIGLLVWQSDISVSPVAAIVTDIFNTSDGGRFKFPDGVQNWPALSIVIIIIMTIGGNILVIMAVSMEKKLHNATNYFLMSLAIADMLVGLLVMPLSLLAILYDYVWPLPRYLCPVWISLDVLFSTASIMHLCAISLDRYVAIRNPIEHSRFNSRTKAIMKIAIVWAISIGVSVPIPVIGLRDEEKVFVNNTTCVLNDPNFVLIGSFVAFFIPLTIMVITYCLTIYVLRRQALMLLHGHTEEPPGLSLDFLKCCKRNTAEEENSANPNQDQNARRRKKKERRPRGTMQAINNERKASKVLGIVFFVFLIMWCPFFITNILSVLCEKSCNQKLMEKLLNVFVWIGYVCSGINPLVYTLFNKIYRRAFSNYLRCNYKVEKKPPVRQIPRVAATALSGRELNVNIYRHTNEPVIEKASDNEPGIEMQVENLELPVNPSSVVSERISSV

[3] = molecular target: Sodium-dependent noradrenaline transporter (Homo sapiens, UniProt P23975); test: Binding affinity towards Norepinephrine transporter using [3H]nisoxitine as radioligand
[4] = molecular target: Sodium-dependent serotonin transporter (Homo sapiens, UniProt P31645); test: Binding affinity towards Serotonin transporter using [3H]paroxetine as radioligand

SMILES	pKi [1]	further results
c1ccc2c(c1)Cc1ccccc1C21CCCNC1	7.00	–
c1ccc(C2(c3ccccc3)CCNC2)cc1	5.34	–
CN(C)CCCN1c2ccccc2CCc2ccccc21 [IMIPRAMINE]	–	pKi [2]: 6.80
CN1CCC(=C2c3ccccc3C=Cc3ccccc32)CC1 [CYPROHEPTADINE]	–	pKi [2]: 7.96
c1ccc2c(c1)CCc1ccccc1C21CCNC1	6.96	–
c1ccc2c(c1)CCCC21CCNC1 (stereo not drawn)	< 5.00	–
c1ccc2c(c1)Cc1ccccc1C21CCNC1	–	pKi [3]: 5.00; pKi [4]: 5.41
